One assay has as its system E. coli Ec11. The assay is described as follows: BMD susceptibility test. It is filed as cell-based, Escherichia coli. The settings on record: unit assumed.
In assay [1] the test system is S. aureus Sa23. The assay is described as follows: BMD susceptibility test. Particulars: unit assumed. It is filed as cell-based, Staphylococcus aureus.
In assay [2] the test system is S. aureus Sa23. Briefly: FaAST (FDAA metabolic labeling method). It is filed as cell-based, Staphylococcus aureus. Particulars: unit assumed. As to the method:
(§1) Take the colony to be tested that has been cultured overnight on the plate and fully mix it in normal saline to make a uniform bacterial solution. Dilute it into Cation-Adjusted Mueller Hinton Broth (CAMHB) culture medium to make a bacterial solution with OD600=0.05. • 2. Add 45 μl antibiotic solutions of different concentrations to 96-well plates (see Table 1 for antibiotic concentration gradient settings). • 3. Add 50 μl of the bacterial solution prepared in step 1 to the 96-well plate and mix well. • 4. Add 5 μl of 10 mM Cy5-DAA probe (final concentration 0.15 mM, see FIG. 1 for its structure) into each well, mix well, and cultivate in dark for 2 hours. • 5. Add 200 μl After PBS solution is diluted, the fluorescence intensity of each sample is detected by flow cytometry. The flow detection results are shown in FIG. 4-5, showing the curve of the change of antibiotic concentration gradient and fluorescence intensity. The MIC (minimum inhibitory concentration) can be obtained by referring to this curve.
(§2) Bacteria with antibiotic resistance are shown in bold in the following table.

Another assay has as its system S. aureus ATCC29213. The assay is described as follows: FaAST (FDAA metabolic labeling method). The format is cell-based, Staphylococcus aureus. The settings on record: unit assumed. The procedure: as §1, §2
Assay [3] relates to S. aureus Sa22. Briefly: FaAST (FDAA metabolic labeling method). It is filed as cell-based, Staphylococcus aureus. The settings on record: unit assumed. As to the method:
as §1, §2

The test system of the next assay is E.coli 1146. Briefly: Vitek 2 drug sensitivity test. As to Sensibility: key: S: Drug sensitive; R: Drug resistance. It is filed as cell-based, Escherichia coli.
A further assay has as its system Pa ATCC 27853. The assay is described as follows: BMD susceptibility test. The format is cell-based, Pseudomonas aeruginosa. The settings on record: unit assumed.
The test system of a further assay is P. aeruginosa Pa3. Briefly: BMD susceptibility test. The settings on record: unit assumed. The format is cell-based, Pseudomonas aeruginosa.
Assay [4] has as its system alveolar lavage fluid sample 0203, K. pneumoniae. The assay is described as follows: FaAST (FDAA) susceptibility test of patient alveolar lavage fluid. It is filed as cell-based, Klebsiella pneumoniae. The settings on record: unit assumed. As to the method:
(§3) With reference to the flow chart of the rapid detection method of antimicrobial susceptibility test based on FDAA metabolic markers shown in FIG. 3, FDAA is used for the detection of antimicrobial susceptibility test of alveolar lavage fluid. The specific experimental steps are as follows: • 1. Mix bronchoalveolar lavage fluid (BALF, 10 ml) of patients with hospital acquired pneumonia with cation regulated broth medium (CAMHB, 10 ml) of twice the concentration to prepare the bacterial fluid to be tested. • 2. Add 45 μl antibiotic solutions of different concentrations to the 96-well plate separately (see Table 1 for antibiotic concentration gradient settings). • 3. Add 50 μl of the bacterial solution prepared in step 1 to the 96-well plate and mix well. • 4. Add 5 μl of 10 mM Cy5-DAA probe (final concentration 0.15 mM, see FIG. 1 for its structure) into each well, mix well, and then cultivate in dark for 2 hours. • 5. Add 200 μl PBS solution for dilution, and then use flow cytometry to detect the fluorescence intensity of each sample.
(§4) The results of antimicrobial susceptibility test of alveolar lavage fluid of seven patients using FDAA and BMD methods are shown in the following table. The drug-resistant bacteria are shown in bold.

Assay [5] has as its system alveolar lavage fluid sample 0226, K. pneumoniae. Described as above. It is filed as cell-based, Klebsiella pneumoniae. Particulars: unit assumed. As to the method:
as §3, §4

In a further assay the test system is E. faecium Ef26. The assay is described as follows: FaAST (FDAA metabolic labeling method). Particulars: unit assumed. The format is cell-based, Enterococcus faecium. In short, it runs like this:
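Bacteria at OD600=0.05 in CAMHB exposed to antibiotic concentration gradients with Cy5-DAA probe […], 2 h in the dark. Fluorescence read by flow cytometry after PBS dilution; MIC taken from the curve of fluorescence intensity versus antibiotic concentration.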

For assay [6], the system named is S. aureus Sa22. Briefly: BMD susceptibility test. The format is cell-based, Staphylococcus aureus. The settings on record: unit assumed.
The test system of the next assay is K. pneumoniae Kp9. Briefly: BMD susceptibility test. The format is cell-based, Klebsiella pneumoniae. The settings on record: unit assumed.
The subject of assay [7] is Pseudomonas aeruginosa PAE853. The assay is described as follows: VITEK drug sensitivity test. Particulars: unit assumed. The format is cell-based.
The subject of assay [8] is Acinetobacter baumannii ABA19. The assay is described as follows: VITEK drug sensitivity test. It is filed as cell-based. Particulars: unit assumed.
Assay [9] deals with alveolar lavage fluid sample 0219, A. baumannii. The assay is described as follows: BMD susceptibility test of patient alveolar lavage fluid. It is filed as cell-based, Acinetobacter baumannii. Particulars: unit assumed.
From the text: as §4

Assay [10] has as its system alveolar lavage fluid sample 0130, A. baumannii. Described as above. The settings on record: unit assumed. It is filed as cell-based, Acinetobacter baumannii.
From the text: as §4

The subject of assay [11] is alveolar lavage fluid sample 0206, A. baumannii. The description is as above. Particulars: unit assumed. It is filed as cell-based, Acinetobacter baumannii.
From the text: as §4

In a further assay the test system is E. faecium Ef28. Briefly: FaAST (FDAA metabolic labeling method). The format is cell-based, Enterococcus faecium. The settings on record: unit assumed. As to the method:
as §1, with “The flow detection results are shown in FIG. 4-5, showing the curve of the change of antibiotic concentration gradient and fluorescence intensity.” left out

A further assay relates to Ec ATCC 25922. The assay is described as follows: BMD susceptibility test. It is filed as cell-based, Escherichia coli. Particulars: unit assumed.
Assay [12] deals with Pseudomonas aeruginosa PAE2. Briefly: VITEK drug sensitivity test. The settings on record: unit assumed. It is filed as cell-based.

≈ marks a conversion by molar mass, not a printed value. A value given as a limit tells only on which side of the number the result lay.

Turning to `C[C@H]1COc2c(N3CCN(C)CC3)c(F)cc3c(=O)c(C(=O)O)cn1c23` [Levofloxacin, levofloxacin], the BMD (MIC) in the assay on E. coli Ec11 was ≤ 0.25 µg/mL; in the assay with S. aureus Sa23 [1], 1 µg/mL; in the assay on Pa ATCC 27853, 0.5 µg/mL; with P. aeruginosa Pa3, 0.5 µg/mL; in the assay on S. aureus Sa22 [6] it was 32 µg/mL; with K. pneumoniae Kp9, 32 µg/mL. Also, the BMD (MIC) in assay [9] is 32 µg/mL; in assay [10], 64 µg/mL; in [11], 32 µg/mL; in the assay with Ec ATCC 25922, ≤ 0.25 µg/mL. Besides, the FaAST (MIC) in the assay with S. aureus Sa23 [2] worked out at 1 µg/mL; with S. aureus ATCC29213, 0.5 µg/mL; in the assay with S. aureus Sa22 [3], 32 µg/mL; in [4] it was 0.25 µg/mL; in assay [5], 0.25 µg/mL; with E. faecium Ef26, 64 µg/mL. Moreover, the FaAST (MIC) with E. faecium Ef28 came to 64 µg/mL. For the same compound, the Sensibility entry in the assay with E.coli 1146 is recorded as “R”. Moreover, in the assay on E.coli 1146 (Escherichia coli), the MIC is ≥ 8 µg/mL. The MIC, VITEK in [7] was 0.5 µg/mL (≈ 1.38 µM); in assay [8], ≤ 0.25 µg/mL; in assay [12], 0.5 µg/mL (≈ 1.38 µM).

What is called MIC is the lowest concentration that inhibits growth of the organism. Lower therefore signals inhibition by little substance.

The values above are taken from US20240240224A1, “FLUORESCENT D-TYPE AMINO ACID METABOLISM MARKER-BASED METHOD FOR DETECTING ANTIBACTERIAL DRUG SENSITIVITY TEST” (priority 2020, published 2024).
